{"source": "patent US5929038A", "about": "“Pharmaceutical preparations which inhibit hepatitis B virus (HBV) replication” (Choongwae Pharmaceutical Co., Ltd., priority 1992, dated 1999)", "tested_on": "HBV DNA replication", "assay": "Effects on HBV DNA replication in 2.2.15 cells in culture (intracellular HBV DNA and HBV virion DNA)", "assay_type": "cell-based, hepatitis B virus", "conditions": "for Intracellular HBV DNA, Mono. / Intracellular HBV DNA, RI (Replicating Intermediate): 24 hrs following the 9th day of treatment; for HBV Virion DNA, Day 0: Day 0, before first dose", "key": {"[1]": {"conditions": "30 μM + 30'Gly. (incubated 30 min with glycosidase)"}, "[2]": {"conditions": "30 μM + Gly. (first group, 123AE/AF/BE/BF)"}, "[3]": {"conditions": "30 μM + Gly. (second group, 123AG/AH/BG/BH)"}, "[4]": {"conditions": "100 μM + 30'Gly. (incubated 30 min with glycosidase)"}, "[5]": {"conditions": "300 μM + 30'Gly. (incubated 30 min with glycosidase)"}, "[6]": {"conditions": "300 μM + Gly. (glucosidase, no incubation)"}, "[7]": {"conditions": "1000 μM + 30'Gly. (incubated 30 min with glycosidase)"}}, "note": "Several values for one entry are separate records, joined by “and”; a condition that tells them apart may be missing. Identical values can stand only once. Entries after “also recorded” stand apart in the source; their conditions may differ.", "data": [{"smiles": "OCC1=CC(O)C2C=COC(O[C@@H]3O[C@H](CO)[C@@H](O)[C@H](O)[C@H]3O)C12", "note": "(stereo partly drawn) [Aucubin, 1,4,5, 7α-tetrahydro-5-hydroxy-17-(hydroxymethyl)cyclopenta[c]pyran-1-yl-β-D-glucopyranose]", "values": [{"measurement": "inhibition of HBV DNA biosynthesis / antiviral activity (in words)", "value": "exerts an antiviral activity aganist HBV infection; also recorded: marked inhibition of HBV DNA biosynthesis"}, {"measurement": "Intracellular HBV DNA, Mono.", "setting": "[1]", "value": "2.5 pg/μg cell DNA and 2.4 pg/μg cell DNA and 2.3 pg/μg cell DNA and 2.7 pg/μg cell DNA"}, {"measurement": "Intracellular HBV DNA, RI (Replicating Intermediate)", "setting": "[1]", "value": "92 pg/μg cell DNA and 68 pg/μg cell DNA and 59 pg/μg cell DNA"}, {"measurement": "HBV Virion DNA, Day 0", "setting": "30 μM + 30'Gly.", "value": "61 pg/ml culture medium and 79 pg/ml culture medium and 68 pg/ml culture medium"}, {"measurement": "HBV Virion DNA, Day 3", "setting": "30 μM + 30'Gly.", "value": "85 pg/ml culture medium and 94 pg/ml culture medium and 51 pg/ml culture medium and 75 pg/ml culture medium"}, {"measurement": "HBV Virion DNA, Day 6", "setting": "30 μM + 30'Gly.", "value": "70 pg/ml culture medium and 62 pg/ml culture medium and 55 pg/ml culture medium and 75 pg/ml culture medium"}, {"measurement": "HBV Virion DNA, Day 9", "setting": "30 μM + 30'Gly.", "value": "80 pg/ml culture medium and 48 pg/ml culture medium and 87 pg/ml culture medium and 91 pg/ml culture medium"}, {"measurement": "Intracellular HBV DNA, Mono.", "setting": "[2]", "value": "2.6 pg/μg cell DNA and 2.8 pg/μg cell DNA and 2.4 pg/μg cell DNA and 2.1 pg/μg cell DNA"}, {"measurement": "Intracellular HBV DNA, RI (Replicating Intermediate)", "setting": "[2]", "value": "21 pg/μg cell DNA and 27 pg/μg cell DNA and 22 pg/μg cell DNA and 26 pg/μg cell DNA"}, {"measurement": "HBV Virion DNA, Day 0", "setting": "[2]", "value": "52 pg/ml culture medium and 76 pg/ml culture medium and 55 pg/ml culture medium"}, {"measurement": "HBV Virion DNA, Day 3", "setting": "[2]", "value": "59 pg/ml culture medium and 77 pg/ml culture medium and 51 pg/ml culture medium"}, {"measurement": "HBV Virion DNA, Day 6", "setting": "[2]", "value": "40 pg/ml culture medium and 48 pg/ml culture medium and 66 pg/ml culture medium and 59 pg/ml culture medium"}, {"measurement": "HBV Virion DNA, Day 9", "setting": "[2]", "value": "15 pg/ml culture medium and 22 pg/ml culture medium"}, {"measurement": "Intracellular HBV DNA, Mono.", "setting": "[3]", "value": "2.6 pg/μg cell DNA and 2.8 pg/μg cell DNA and 2.4 pg/μg cell DNA and 2.1 pg/μg cell DNA"}, {"measurement": "Intracellular HBV DNA, RI (Replicating Intermediate)", "setting": "[3]", "value": "70 pg/μg cell DNA and 75 pg/μg cell DNA and 63 pg/μg cell DNA and 68 pg/μg cell DNA"}, {"measurement": "HBV Virion DNA, Day 0", "setting": "[3]", "value": 67, "unit": "pg/ml culture medium"}, {"measurement": "HBV Virion DNA, Day 3", "setting": "[3]", "value": "94 pg/ml culture medium and 82 pg/ml culture medium and 97 pg/ml culture medium and 62 pg/ml culture medium"}, {"measurement": "HBV Virion DNA, Day 6", "setting": "[3]", "value": "58 pg/ml culture medium and 61 pg/ml culture medium and 69 pg/ml culture medium"}, {"measurement": "HBV Virion DNA, Day 9", "setting": "[3]", "value": "55 pg/ml culture medium and 72 pg/ml culture medium and 70 pg/ml culture medium and 67 pg/ml culture medium"}, {"measurement": "Intracellular HBV DNA, Mono.", "setting": "[4]", "value": "2.5 pg/μg cell DNA and 2.4 pg/μg cell DNA and 2.3 pg/μg cell DNA and 2.7 pg/μg cell DNA"}, {"measurement": "Intracellular HBV DNA, RI (Replicating Intermediate)", "setting": "[4]", "value": "33 pg/μg cell DNA and 32 pg/μg cell DNA and 27 pg/μg cell DNA and 26 pg/μg cell DNA"}, {"measurement": "HBV Virion DNA, Day 0", "setting": "100 μM + 30'Gly.", "value": "55 pg/ml culture medium and 51 pg/ml culture medium and 86 pg/ml culture medium"}, {"measurement": "HBV Virion DNA, Day 3", "setting": "100 μM + 30'Gly.", "value": "80 pg/ml culture medium and 49 pg/ml culture medium and 50 pg/ml culture medium and 57 pg/ml culture medium"}, {"measurement": "HBV Virion DNA, Day 6", "setting": "100 μM + 30'Gly.", "value": "50 pg/ml culture medium and 66 pg/ml culture medium and 41 pg/ml culture medium and 45 pg/ml culture medium"}, {"measurement": "HBV Virion DNA, Day 9", "setting": "100 μM + 30'Gly.", "value": 16, "unit": "pg/ml culture medium"}, {"measurement": "Intracellular HBV DNA, Mono.", "setting": "[5]", "value": "2.4 pg/μg cell DNA and 2.6 pg/μg cell DNA and 1.9 pg/μg cell DNA and 2.0 pg/μg cell DNA"}, {"measurement": "Intracellular HBV DNA, RI (Replicating Intermediate)", "setting": "[5]", "value": "11 pg/μg cell DNA and 10 pg/μg cell DNA and 7 pg/μg cell DNA and 9 pg/μg cell DNA"}, {"measurement": "HBV Virion DNA, Day 0", "setting": "300 μM + 30'Gly.", "value": "88 pg/ml culture medium and 51 pg/ml culture medium and 50 pg/ml culture medium and 59 pg/ml culture medium"}, {"measurement": "HBV Virion DNA, Day 3", "setting": "300 μM + 30'Gly.", "value": "80 pg/ml culture medium and 55 pg/ml culture medium and 61 pg/ml culture medium"}, {"measurement": "HBV Virion DNA, Day 6", "setting": "300 μM + 30'Gly.", "value": "54 pg/ml culture medium and 39 pg/ml culture medium and 44 pg/ml culture medium"}, {"measurement": "HBV Virion DNA, Day 9", "setting": "300 μM + 30'Gly.", "value": "9 pg/ml culture medium and 7 pg/ml culture medium and 6 pg/ml culture medium and 8 pg/ml culture medium"}, {"measurement": "Intracellular HBV DNA, Mono.", "setting": "[6]", "value": "2.0 pg/μg cell DNA and 2.4 pg/μg cell DNA and 2.5 pg/μg cell DNA"}, {"measurement": "Intracellular HBV DNA, RI (Replicating Intermediate)", "setting": "[6]", "value": "7 pg/μg cell DNA and 6 pg/μg cell DNA and 5 pg/μg cell DNA and 9 pg/μg cell DNA"}, {"measurement": "HBV Virion DNA, Day 0", "setting": "300 μM + Gly.", "value": "54 pg/ml culture medium and 59 pg/ml culture medium and 77 pg/ml culture medium and 66 pg/ml culture medium"}, {"measurement": "HBV Virion DNA, Day 3", "setting": "300 μM + Gly.", "value": "66 pg/ml culture medium and 89 pg/ml culture medium and 98 pg/ml culture medium"}, {"measurement": "HBV Virion DNA, Day 6", "setting": "300 μM + Gly.", "value": "54 pg/ml culture medium and 48 pg/ml culture medium and 44 pg/ml culture medium and 51 pg/ml culture medium"}, {"measurement": "HBV Virion DNA, Day 9", "setting": "300 μM + Gly.", "value": "9 pg/ml culture medium and 7 pg/ml culture medium and 5 pg/ml culture medium and 6 pg/ml culture medium"}, {"measurement": "Intracellular HBV DNA, Mono.", "setting": "[7]", "value": "2.3 pg/μg cell DNA and 2.0 pg/μg cell DNA and 2.1 pg/μg cell DNA"}, {"measurement": "Intracellular HBV DNA, RI (Replicating Intermediate)", "setting": "[7]", "value": "3 pg/μg cell DNA and 2 pg/μg cell DNA and 4 pg/μg cell DNA"}, {"measurement": "HBV Virion DNA, Day 0", "setting": "1000 μM + 30'Gly.", "value": "84 pg/ml culture medium and 70 pg/ml culture medium and 79 pg/ml culture medium and 59 pg/ml culture medium"}, {"measurement": "HBV Virion DNA, Day 3", "setting": "1000 μM + 30'Gly.", "value": "67 pg/ml culture medium and 66 pg/ml culture medium and 78 pg/ml culture medium"}, {"measurement": "HBV Virion DNA, Day 6", "setting": "1000 μM + 30'Gly.", "value": "20 pg/ml culture medium and 17 pg/ml culture medium and 24 pg/ml culture medium"}]}]}
